Some test systems named below: SN12C; U-251; SK-MEL-2; CAKI-1; DU-145; SF-295; HOP-92; OVCAR-8; M14; 786-0; UACC-62; SW-620; MDA-N; EKVX; NCI-H460; MDA-MB-435; NCI/ADR-RES; RPMI-8226; SK-OV-3; NCI-H226.
Common to all, as to assay: NCI tumour cell line growth inhibition, 48 h

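The compound was tested at five concentrations on cells cultured in 96-well plates, with a 48-hour exposure period. The concentration for 50% growth inhibition is given as GI50.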 Calls of active or inactive are those of the source. Rule as the data show it: active = GI50 up to about 1.1 µM and inactive = higher.

As to `Nc1c(Cl)ncnc1N[C@@H]1C[C@H]1CO`, the GI50 in the test on SN12C, in the test on U-251, with SK-MEL-2, in the test on CAKI-1, in the test with DU-145 and in the test on SF-295 was > 100 µM (inactive) each time. Moreover, the GI50 in the test on HOP-92, in the test with OVCAR-8, in the test on M14, in the test with 786-0, in the test on UACC-62 and in the test on SW-620 was > 100 µM (inactive) in each case. The GI50 with MDA-N, in the test with EKVX, in the test with NCI-H460, in the test on MDA-MB-435 and in the test with NCI/ADR-RES was > 100 µM (inactive) each time.
As for `O=C(O)C12C3C4(C(=O)O)C1C1(C(=O)O)C2C3(C(=O)O)C41` (stereo not given), the GI50 in the test with SN12C is > 100 µM (inactive); with U-251, > 100 µM (inactive); in the test with SK-MEL-2 it was > 100 µM (inactive); with CAKI-1, > 100 µM (inactive); in the test on DU-145 it was > 100 µM (inactive); with SF-295 it was 4.4 µM (inactive). The GI50 with RPMI-8226, in the test on HOP-92, with OVCAR-8, with M14, with 786-0 and in the test with UACC-62 was > 100 µM (inactive) each time. Also, the GI50 in the test with SW-620, with MDA-N, in the test with EKVX, in the test on NCI-H460, in the test with MDA-MB-435 and in the test with NCI/ADR-RES was > 100 µM (inactive) throughout.
As to `Nc1cc(S(=O)(=O)O)cc2ccc(S(=O)(=O)O)cc12`, the GI50 in the test with SN12C, in the test with U-251, with SK-MEL-2, with CAKI-1, in the test with DU-145 and in the test with SF-295 was > 100 µM (inactive) each time. The GI50 with RPMI-8226, with HOP-92, with SK-OV-3, in the test on OVCAR-8, with M14 and with 786-0 was > 100 µM (inactive) each time. Also, the GI50 in the test with UACC-62, in the test with SW-620, with MDA-N, in the test on EKVX, with NCI-H460 and in the test with MDA-MB-435 was > 100 µM (inactive) throughout. Further, the GI50 in the test on NCI/ADR-RES is > 100 µM (inactive).
With `O=C(O)CC[P+](c1ccccc1)(c1ccccc1)c1ccccc1`, the GI50 in the test with SN12C is 16.9 µM (inactive); in the test on U-251, 23.2 µM (inactive); in the test on SK-MEL-2, 21.6 µM (inactive); in the test on NCI-H226, 53.5 µM (inactive); with CAKI-1, > 100 µM (inactive); in the test on DU-145, 48.2 µM (inactive). The GI50 is 79.6 µM (inactive) in the test on SF-295; 3.21 µM (inactive) with RPMI-8226; 88.5 µM (inactive) with SK-OV-3; 43.5 µM (inactive) with OVCAR-8; 23.1 µM (inactive) in the test with M14; 30.6 µM (inactive) in the test on 786-0. The GI50 in the test with UACC-62 was 22.3 µM (inactive); with SW-620, > 100 µM (inactive); in the test on MDA-N, 20.4 µM (inactive); in the test with EKVX it was 36.8 µM (inactive); with MDA-MB-435 it was 26.5 µM (inactive); in the test on NCI/ADR-RES, > 100 µM (inactive).
With `CN(C)Cc1cc(C(C)(C)C)cc(CNC2CCCCC2)c1O`, the GI50 in the test on SN12C is 35.6 µM (inactive); with U-251 it was 45 µM (inactive); with SK-MEL-2 it was > 100 µM (inactive); in the test with CAKI-1, 44.6 µM (inactive); in the test with DU-145, 40.9 µM (inactive); in the test on SF-295 it was 23 µM (inactive). Besides, the GI50 with RPMI-8226 was 16.7 µM (inactive); with HOP-92, 19.5 µM (inactive); with SK-OV-3 it was 30.7 µM (inactive); in the test on M14 it was 16.1 µM (inactive); in the test with 786-0, 27.9 µM (inactive); with UACC-62 it was 51.9 µM (inactive). In addition, the GI50 in the test with SW-620 was 33.5 µM (inactive); in the test with MDA-N, 83.8 µM (inactive); with EKVX it was 15.8 µM (inactive); in the test with NCI-H460, 20.4 µM (inactive); in the test on MDA-MB-435, 65.9 µM (inactive); with NCI/ADR-RES, 25.2 µM (inactive).
`CCN(CC)CCC(=O)Nc1ccc2sc3ccccc3c(=O)c2n1`: the GI50 with SN12C is 23 µM (inactive); with U-251, 14.9 µM (inactive); in the test on SK-MEL-2 it was 19.8 µM (inactive); in the test with CAKI-1, 14 µM (inactive); in the test on DU-145, 23.4 µM (inactive); in the test on SF-295, 21.2 µM (inactive). Further, the GI50 in the test with RPMI-8226 was 12.1 µM (inactive); in the test on HOP-92, 0.02 µM (active); with SK-OV-3, 20.6 µM (inactive); in the test on OVCAR-8 it was 17.5 µM (inactive); with M14, 13.8 µM (inactive); in the test on 786-0, 12.5 µM (inactive). Moreover, the GI50 in the test with UACC-62 was 17.7 µM (inactive); in the test on SW-620, 12 µM (inactive); in the test on MDA-N, 14.1 µM (inactive); in the test with EKVX, 25.9 µM (inactive); with NCI-H460, 23.1 µM (inactive); in the test with MDA-MB-435, 13.1 µM (inactive). Also, the GI50 in the test on NCI/ADR-RES was 19.8 µM (inactive).
As to `CC1=C/C(=N\O)C(C(O)(C(F)(F)F)C(F)(F)F)C(C)(C)C1` (stereo not given), the GI50 in the test on SN12C, in the test on U-251, in the test with NCI-H226, in the test on CAKI-1, in the test with DU-145 and with SF-295 was > 10 µM (inactive) each time. Besides, the GI50 with HOP-92, with SK-OV-3, with OVCAR-8, in the test on M14, with 786-0 and in the test with UACC-62 was > 10 µM (inactive) in each case. The GI50 in the test on SW-620, in the test on MDA-N, in the test with EKVX, with NCI-H460, in the test on MDA-MB-435 and in the test with NCI/ADR-RES was > 10 µM (inactive) each time.
For `COc1ccc(OC)c(C2CCc3c(cnc4nc(N)nc(N)c34)C2)c1` (stereo not given), the GI50 in the test on SN12C is 8.83 µM (inactive); with U-251, 4.79 µM (inactive); in the test with SK-MEL-2 it was 15.2 µM (inactive); with NCI-H226, 24.9 µM (inactive); in the test on CAKI-1 it was 14 µM (inactive); with DU-145, 13.9 µM (inactive). Also, the GI50 in the test with SF-295 was 7.23 µM (inactive); with HOP-92 it was 13.2 µM (inactive); with SK-OV-3, 16 µM (inactive); in the test with OVCAR-8 it was 5.36 µM (inactive); in the test on M14, 1.3 µM (inactive); in the test with 786-0 it was 4.48 µM (inactive). In addition, the GI50 with UACC-62 was 0.673 µM (active); in the test with SW-620 it was 10.1 µM (inactive); in the test on MDA-N, 2.07 µM (inactive); with EKVX it was 1.58 µM (inactive); with NCI-H460, 2.07 µM (inactive); in the test with MDA-MB-435, 2.56 µM (inactive). The GI50 in the test with NCI/ADR-RES is 55.3 µM (inactive).
As to `CCOC(=O)NC`, the GI50 with SN12C, with U-251, in the test with SK-MEL-2, with CAKI-1, in the test with DU-145 and with SF-295 was > 100 µM (inactive) in each case. The GI50 with RPMI-8226, with HOP-92, with SK-OV-3, in the test with M14, in the test with 786-0 and in the test with UACC-62 was > 100 µM (inactive) each time. Moreover, the GI50 in the test on SW-620, in the test on MDA-N, with EKVX, in the test with NCI-H460, in the test with MDA-MB-435 and in the test with NCI/ADR-RES was > 100 µM (inactive) each time.
As to `N=C(CC/C(N)=N/O)NO`, the GI50 in the test on SN12C, with U-251, in the test with SK-MEL-2, in the test with NCI-H226, with CAKI-1 and in the test on DU-145 was > 100 µM (inactive) throughout. In addition, the GI50 was > 100 µM (inactive) in the test with SF-295; > 100 µM (inactive) in the test on HOP-92; 38.7 µM (inactive) in the test on M14; > 100 µM (inactive) in the test with 786-0; > 100 µM (inactive) in the test with UACC-62; > 100 µM (inactive) in the test with SW-620. The GI50 with MDA-N, in the test on EKVX, with NCI-H460, with MDA-MB-435 and in the test on NCI/ADR-RES was > 100 µM (inactive) throughout.
As to `Cc1cc2c(cc1Cl)SC(NNC(=O)c1ccco1)=NS2(=O)=O`, the GI50 with SN12C, in the test on U-251, in the test with SK-MEL-2, in the test on NCI-H226, in the test on CAKI-1 and with DU-145 was > 10 µM (inactive) each time. The GI50 in the test on SF-295, in the test on RPMI-8226, in the test on SK-OV-3, in the test on OVCAR-8, in the test with M14 and with 786-0 was > 10 µM (inactive) throughout. The GI50 in the test on UACC-62, in the test with SW-620, in the test on MDA-N, in the test on EKVX, with NCI-H460 and in the test on MDA-MB-435 was > 10 µM (inactive) throughout. Moreover, the GI50 in the test on NCI/ADR-RES was > 10 µM (inactive).

The values are drawn from ChEMBL document CHEMBL1201862, “PubChem BioAssay data set” (2004).
